Like-named read-outs stand apart in the source and are kept apart here.
Experiments:
[1] = test system: luciferase expression in the liver; experiment: In vivo luciferase mRNA expression rodent model (liver luciferase after tail vein injection of FLuc mRNA lipid nanoparticles); set-up: species or system mice; details: liver 4 hours after administration, FLuc mRNA (L-6107) LNP 50% cationic lipid/10% DSPC/38.5% cholesterol/1.5% PEG-DMG; for Liver Luc @ 0.3 mg/kg dose: 0.3 mg mRNA/kg; for Liver Luc @ 1.0 mg/kg dose: 1.0 mg mRNA/kg
Method: Lipid nanoparticles were prepared and tested according to the general procedures described in PCT Pub. Nos. WO 2015/199952 and WO 2017/004143, the full disclosures of which are incorporated herein by reference. Briefly, cationic lipid, DSPC, cholesterol and PEG-lipid were solubilized in ethanol at a molar ratio of about 50:10:38.5:1.5 or about 47.5:10:40.8:1.7. Lipid nanoparticles (LNP) were prepared at a total lipid to mRNA weight ratio of approximately 10:1 to 30:1. The mRNA is diluted to 0.2 mg/mL in 10 to 50 mM citrate or acetate buffer, pH 4. Syringe pumps were used to mix the ethanolic lipid solution with the mRNA aqueous solution at a ratio of about 1:5 to 1:3 (vol/vol) with total flow rates above 15 mL/min. The ethanol was then removed and the external buffer replaced with PBS by dialysis. Finally, the lipid nanoparticles were filtered through a 0.2 µm pore sterile filter. Lipid nanoparticle particle size was approximately 55-95 nm diameter, and in some instances approximately 70-90 nm diameter as determined by quasi-elastic light scattering using a Malvern Zetasizer Nano ZS (Malvern, UK).
Studies were performed in 6-8 week old female C57BL/6 mice (Charles River) or 8-10 week old CD-1 (Harlan) mice (Charles River) according to guidelines established by an institutional animal care committee (ACC) and the Canadian Council on Animal Care (CCAC). Varying doses of mRNA-lipid nanoparticle were systemically administered by tail vein injection and animals euthanized at a specific time point (e.g., 4 hours) post-administration. Liver and spleen were collected in pre-weighed tubes, weights determined, immediately snap frozen in liquid nitrogen and stored at -80° C. until processing for analysis.
For liver, approximately 50 mg was dissected for analyses in a 2 mL FastPrep tubes (MP Biomedicals, Solon OH). ¼” ceramic sphere (MP Biomedicals) is added to each tube and 500 µL of Glo Lysis Buffer - GLB (Promega, Madison Wl) equilibrated to room temperature is added to liver tissue. Liver tissues were homogenized with the FastPrep24 instrument (MP Biomedicals) at 2 × 6.0 m/s for 15 seconds. Homogenate was incubated at room temperature for 5 minutes prior to a 1:4 dilution in GLB and assessed using SteadyGlo Luciferase assay system (Promega). Specifically, 50 µL of diluted tissue homogenate was reacted with 50 µL of SteadyGlo substrate, shaken for 10 seconds followed by 5 minute incubation and then quantitated using a CentroXS^3 LB 960 luminometer (Berthold Technologies, Germany). The amount of protein assayed was determined by using the BCA protein assay kit (Pierce, Rockford IL). Relative luminescence units (RLU) were then normalized to total µg protein assayed. To convert RLU to ng luciferase a standard curve was generated with QuantiLum Recombinant Luciferase (Promega).
The FLuc mRNA (L-6107 or L-7202) from Trilink Biotechnologies will express a luciferase protein, originally isolated from the firefly, photinus pyralis. FLuc is commonly used in mammalian cell culture to measure both gene expression and cell viability. It emits bioluminescence in the presence of the substrate, luciferin. This capped and poly-adenylated mRNA was fully substituted with respect to uridine and/or cytidine nucleosides.
The cationic lipids shown in Table 2 have previously been tested with nucleic acids. For comparative purposes, these lipids were also used to formulate lipid nanoparticles containing the FLuc mRNA (L-6107) using an in line mixing method, as described in Example 1 and in PCT/US10/22614, which is hereby incorporated by reference in its entirety. Lipid nanoparticles were formulated using the following molar ratio: 50% Cationic lipid / 10% distearoylphosphatidylcholine (DSPC) / 38.5% Cholesterol / 1.5% PEG lipid (“PEG-DMG”, i.e., 1-(monomethoxy-polyethyleneglycol)-2,3-dimyristoylglycerol, with an average PEG molecular weight of 2000). […]

[2] = test system: luciferase expression in the liver; experiment: as above; set-up: species or system mice; details: 0.5 mg mRNA/kg, liver 4 hours after administration, LNP 50% cationic lipid/10% DSPC/38.5% cholesterol/1.5% PEG-DMA or 47.5/10/40.7/1.8
[3] = Determination of pKa of formulated lipids (TNS fluorescence assay in lipid nanoparticles); assay type: physicochemical
Method: As described elsewhere, the pKa of formulated cationic lipids is correlated with the effectiveness of LNPs for delivery of nucleic acids (see Jayaraman et al, Angewandte Chemie, International Edition (2012), 51(34), 8529-8533; Semple et al, Nature Biotechnology 28, 172-176 (2010)). […] Lipid nanoparticles comprising cationic lipid/DSPC/cholesterol/PEG-lipid (50/10/38.5/1.5 mol%) in PBS at a concentration of 0.4 mM total lipid were prepared using the in-line process as described in Example 1. TNS was prepared as a 100 µM stock solution in distilled water. Vesicles were diluted to 24 µM lipid in 2 mL of buffered solutions containing, 10 mM HEPES, 10 mM MES, 10 mM ammonium acetate, 130 mM NaCl, where the pH ranged from 2.5 to 11. An aliquot of the TNS solution was added to give a final concentration of 1 µM and following vortex mixing fluorescence intensity was measured at room temperature in a SLM Aminco Series 2 Luminescence Spectrophotometer using excitation and emission wavelengths of 321 nm and 445 nm. A sigmoidal best fit analysis was applied to the fluorescence data and the pKa was measured as the pH giving rise to half-maximal fluorescence intensity.

[4] = Table 3, cationic lipid formulated in LNP, TNS fluorescence assay, read-out: pKa

Compound | Liver Luc @ 0.3 mg/kg dose [1] | Liver Luc @ 1.0 mg/kg dose [1] | Liver Luc @ 0.5 mg/kg (ng luc/g liver) [2] | also measured
CCCCC/C=C\C/C=C\CCCCCCCCC(CCCCCCCC/C=C\C/C=C\CCCCC)OC(=O)CCCCN(C)C [MC4] | 41 ± 10 ng luciferase/g liver | – | – | –
CCCCC(CC)C(=O)OCCCCCCCCCC(CCCCCCCCCOC(=O)C(CC)CCCC)OC(=O)CCCN(C)C (stereo not shown) [Compound 137] | 281 ± 203 ng luciferase/g liver | 588 ± 303 ng luciferase/g liver | – | –
CCCCCCCCCCN(C(=O)CCCN1CCCC1)C(CCCCCC(=O)OCC(CCCCCC)CCCCCCCC)CCCCCC(=O)OCC(CCCCCC)CCCCCCCC (stereo not shown) [Compound I-29, BIS(2-HEXYLDECYL) 7-(N-DECYL-4-(PYRROLIDIN-1-YL)BUTANAMIDO)TRIDECANEDIOATE] | – | – | 5551 ± 1650 ng luc/g liver | –
CCCCCCCCCCN(C(=O)CCCN(C)C)C(CCCCCC(=O)OCC(CCCCCC)CCCCCCCC)CCCCCC(=O)OCC(CCCCCC)CCCCCCCC (stereo not shown) [Compound I-16, BIS(2-HEXYLDECYL) 7-(N-DECYL-4-(DIMETHYLAMINO)BUTANAMIDO)TRIDECANEDIOATE] | – | – | 4678 ± 1243 ng luc/g liver | –
CCCCCCCCC(CCCCCC)COC(=O)CCCCCC(CCCCCC(=O)OCC(CCCCCC)CCCCCCCC)N(CCCCCC(=O)OCC(CC)CCCC)C(=O)CCN(C)C (stereo not shown) [Compound I-36, BIS(2-HEXYLDECYL) 7-(3-(DIMETHYLAMINO)-N-(6-((2-ETHYLHEXYL)OXY)-6-OXOHEXYL)PROPANAMIDO)TRIDECANEDIOATE] | – | – | 10377 ± 1435 ng luc/g liver | pKa [3, 4]: 6.55
CCCCC/C=C\C/C=C\CCCCCCCCC1(CCCCCCCC/C=C\C/C=C\CCCCC)OC[C@@H](CCN(C)C)O1 [XTC2] | 80 ± 28 ng luciferase/g liver | 237 ± 99 ng luciferase/g liver | – | –
CCCCCCCCCCN(C(=O)CCN(C)C)C(CCCCCC(=O)OCC(CCCCCC)CCCCCCCC)CCCCCC(=O)OCC(CCCCCC)CCCCCCCC (stereo not shown) [Compound I-35, BIS(2-HEXYLDECYL) 7-(N-DECYL-3-(DIMETHYLAMINO)PROPANAMIDO)TRIDECANEDIOATE] | – | – | 14312 ± 4174 ng luc/g liver | pKa [3, 4]: 6.39
CCCCCCCCCCN(C(=O)CCN1CCCC1)C(CCCCCCCCC(=O)OCC(CCCC)CCCCCC)CCCCCCCCC(=O)OCC(CCCC)CCCCCC (stereo not shown) [Compound I-33, BIS(2-BUTYLOCTYL) 10-(N-DECYL-3-(PYRROLIDIN-1-YL)PROPANAMIDO)NONADECANEDIOATE] | – | – | 1304 ± 278 ng luc/g liver | –
CCCCC/C=C\C/C=C\CCCCCCCCN(CCCCCCCC/C=C\C/C=C\CCCCC)CCN(C)C [A] | 77 ± 40 ng luciferase/g liver | 203 ± 122 ng luciferase/g liver | – | –
CCCCC/C=C\C/C=C\CCCCCCCCC(CCCCCCCC/C=C\C/C=C\CCCCC)OC(=O)CCN(C)C [MC2] | 4 ± 1 ng luciferase/g liver | – | – | –
CCCCCCCCCCN(C(=O)CCCN(C)C)C(CCCCCCCCC(=O)OC(CCCCCC)CCCCCC)CCCCCCCCC(=O)OC(CCCCCC)CCCCCC [Compound I-37, DI(TRIDECAN-7-YL) 10-(N-DECYL-4-(DIMETHYLAMINO)BUTANAMIDO)NONADECANEDIOATE] | – | – | 15234 ± 5248 ng luc/g liver | pKa [3, 4]: 6.3
CCCCCCCCCCN(C(=O)CCCN(C)C)C(CCCCCCCCCOC(=O)C(CCCC)CCCCCC)CCCCCCCCCOC(=O)C(CCCC)CCCCCC (stereo not shown) [Compound I-32, 10-(4-(DIMETHYLAMINO)-N-DECYLBUTANAMIDO)NONADECANE-1,19-DIYL BIS(2-BUTYLOCTANOATE)] | – | – | 4091 ± 713 ng luc/g liver | pKa ([3]; Table 1, cationic lipid formulated in LNP (cationic lipid/DSPC/cholesterol/PEG-lipid 50/10/38.5/1.5 mol%), TNS fluorescence, pH giving half-maximal fluorescence, read-out: pKa): 6.41
CCCCC/C=C\C/C=C\CCCCCCCCC(CCCCCCCC/C=C\C/C=C\CCCCC)OC(=O)CCCN(C)C [MC3] | – | 757 ± 528 ng luciferase/g liver | – | –
CCCCCCC(CCCC)COC(=O)CCCCCCCCC(CCCCCCCCC(=O)OCC(CCCC)CCCCCC)N(CC(CC)CCCC)C(=O)CCCN(C)C (stereo not shown) [Compound I-30, BIS(2-BUTYLOCTYL) 10-(4-(DIMETHYLAMINO)-N-(2-ETHYLHEXYL)BUTANAMIDO)NONADECANEDIOATE] | – | – | 13614 ± 3348 ng luc/g liver | pKa ([3]; Table 1, cationic lipid formulated in LNP (cationic lipid/DSPC/cholesterol/PEG-lipid 50/10/38.5/1.5 mol%), TNS fluorescence, pH giving half-maximal fluorescence): 6.47; pKa ([3]; Table 3, cationic lipid formulated in LNP, TNS fluorescence assay): 6.47
CCCCCCCCCCN(C(=O)CCCCN1CCCC1)C(CCCCCCCCC(=O)OCC(CCCC)CCCCCC)CCCCCCCCC(=O)OCC(CCCC)CCCCCC (stereo not shown) [Compound I-9, BIS(2-BUTYLOCTYL) 10-(N-DECYL-5-(PYRROLIDIN-1-YL)PENTANAMIDO)NONADECANEDIOATE] | – | – | 2223 ± 777 ng luc/g liver | –
CCCCC/C=C\C/C=C\CCCCCCCCOCC(CN(C)C)OCCCCCCCC/C=C\C/C=C\CCCCC (stereo not shown) [DLinDMA] | 13 ± 3 ng luciferase/g liver | 67 ± 20 ng luciferase/g liver | – | –
CCCCCC/C=C\COC(=O)CCCCCCCC(CCCCCCCC(=O)OC/C=C\CCCCCC)OC(=O)CCCN(C)C [319 (2% PEG)] | 258 ± 67 ng luciferase/g liver | 681 ± 203 ng luciferase/g liver | – | –
CCCCCCCCCCN(C(=O)CCCCN(C)C)C(CCCCCCCCC(=O)OCC(CCCC)CCCCCC)CCCCCCCCC(=O)OCC(CCCC)CCCCCC (stereo not shown) [Compound I-7, BIS(2-BUTYLOCTYL) 10-(N-DECYL-5-(DIMETHYLAMINO)PENTANAMIDO)NONADECANEDIOATE] | – | – | 2420 ± 1079 ng luc/g liver | –
CCCCCCCCCCN(C(=O)CCCCN(CC)CC)C(CCCCCCCCC(=O)OCC(CCCC)CCCCCC)CCCCCCCCC(=O)OCC(CCCC)CCCCCC (stereo not shown) [Compound I-8, BIS(2-BUTYLOCTYL) 10-(N-DECYL-5-(DIETHYLAMINO)PENTANAMIDO)NONADECANEDIOATE] | – | – | 7384 ± 1916 ng luc/g liver | –
CCCCCCCCCCN(C(=O)CCCN(C)C)C(CCCCCCCCC(=O)OCC(CCCC)CCCCCC)CCCCCCCCC(=O)OCC(CCCC)CCCCCC (stereo not shown) [Compound I-18, BIS(2-BUTYLOCTYL) 10-(N-DECYL-4-(DIMETHYLAMINO)BUTANAMIDO)NONADECANEDIOATE] | – | – | 13301 ± 8071 ng luc/g liver | –
